#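 Five compound concentrations were applied to cells in 96-well plates for 48 hours; endpoints were derived by simple linear interpolation of the resulting dose-response curve. TGI marks complete inhibition of growth.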
# Experiments:
# Assay in all cases: NCI tumour cell line growth inhibition, 48 h
# TK-10 renal = test system: TK-10 renal
# A498 renal = test system: A498 renal
# CCRF-CEM leukemia = test system: CCRF-CEM leukemia
# ACHN renal = test system: ACHN renal
# SNB-75 CNS = test system: SNB-75 CNS
# CAKI-1 renal = test system: CAKI-1 renal
# M14 melanoma = test system: M14 melanoma
# MDA-MB-435 = test system: MDA-MB-435
# SF-268 CNS = test system: SF-268 CNS
# HCT-15 colon = test system: HCT-15 colon
# A549 NSCLC = test system: A549 NSCLC
# BT-549 breast = test system: BT-549 breast
# NCI-H460 lung = test system: NCI-H460 lung
# SF-539 CNS = test system: SF-539 CNS
# SW-620 colon = test system: SW-620 colon
# IGROV1 ovarian = test system: IGROV1 ovarian
# SK-MEL-28 melanoma = test system: SK-MEL-28 melanoma
# SK-MEL-5 melanoma = test system: SK-MEL-5 melanoma
# HOP-62 NSCLC = test system: HOP-62 NSCLC
# SK-MEL-2 melanoma = test system: SK-MEL-2 melanoma
# HCT-116 colon = test system: HCT-116 colon
# K-562 leukemia = test system: K-562 leukemia
# SK-OV-3 ovarian = test system: SK-OV-3 ovarian
# DU-145 prostate = test system: DU-145 prostate
# SN12C renal = test system: SN12C renal
# MCF7 breast = test system: MCF7 breast
# HL-60(TB) leukemia = test system: HL-60(TB) leukemia
# OVCAR-8 ovarian = test system: OVCAR-8 ovarian
# U251 CNS = test system: U251 CNS
# COLO 205 colon = test system: COLO 205 colon
# SF-295 CNS = test system: SF-295 CNS
# NCI-H522 lung = test system: NCI-H522 lung
# OVCAR-5 ovarian = test system: OVCAR-5 ovarian
# KM12 colon = test system: KM12 colon
# NCI-H23 lung = test system: NCI-H23 lung
# SR leukemia = test system: SR leukemia
# UACC-62 melanoma = test system: UACC-62 melanoma
# OVCAR-4 ovarian = test system: OVCAR-4 ovarian
# SNB-19 CNS = test system: SNB-19 CNS
# T-47D breast = test system: T-47D breast
# HT29 colon = test system: HT29 colon
# OVCAR-3 ovarian = test system: OVCAR-3 ovarian
# PC-3 prostate = test system: PC-3 prostate
# MDA-MB-231 breast = test system: MDA-MB-231 breast
# HS 578T breast = test system: HS 578T breast
# 786-0 renal = test system: 786-0 renal
# EKVX NSCLC = test system: EKVX NSCLC
# MOLT-4 leukemia = test system: MOLT-4 leukemia
# UACC-257 melanoma = test system: UACC-257 melanoma
# RPMI-8226 leukemia = test system: RPMI-8226 leukemia
# NCI/ADR-RES ovarian = test system: NCI/ADR-RES ovarian
# MDA-N = test system: MDA-N
# HCC-2998 colon = test system: HCC-2998 colon
# HOP-92 NSCLC = test system: HOP-92 NSCLC
# LOX IMVI melanoma = test system: LOX IMVI melanoma
# NCI-H226 lung = test system: NCI-H226 lung
# UO-31 renal = test system: UO-31 renal
# RXF 393 renal = test system: RXF 393 renal
# MALME-3M melanoma = test system: MALME-3M melanoma
compound,measurement,setting,value
CCc1nc(N)nc(N)c1-c1ccc(N2CCNCC2)cc1,TGI,TK-10 renal,> 100 µM
same,TGI,A498 renal,> 100 µM
same,TGI,CCRF-CEM leukemia,> 86.7 µM
same,TGI,ACHN renal,> 100 µM
same,TGI,SNB-75 CNS,> 100 µM
same,TGI,CAKI-1 renal,> 100 µM
same,TGI,M14 melanoma,> 83.9 µM
same,TGI,MDA-MB-435,> 100 µM
same,TGI,SF-268 CNS,> 100 µM
same,TGI,HCT-15 colon,> 100 µM
same,TGI,A549 NSCLC,> 100 µM
same,TGI,BT-549 breast,> 100 µM
same,TGI,NCI-H460 lung,> 100 µM
same,TGI,SF-539 CNS,> 100 µM
same,TGI,SW-620 colon,> 100 µM
same,TGI,IGROV1 ovarian,> 100 µM
same,TGI,SK-MEL-28 melanoma,> 100 µM
same,TGI,SK-MEL-5 melanoma,40.9 µM
same,TGI,HOP-62 NSCLC,> 100 µM
same,TGI,SK-MEL-2 melanoma,> 100 µM
same,TGI,HCT-116 colon,> 100 µM
same,TGI,K-562 leukemia,> 87.2 µM
same,TGI,SK-OV-3 ovarian,> 100 µM
same,TGI,DU-145 prostate,> 100 µM
same,TGI,SN12C renal,> 100 µM
same,TGI,MCF7 breast,> 94.3 µM
same,TGI,HL-60(TB) leukemia,> 71 µM
same,TGI,OVCAR-8 ovarian,> 100 µM
same,TGI,U251 CNS,> 100 µM
same,TGI,COLO 205 colon,41.1 µM
same,TGI,SF-295 CNS,> 100 µM
same,TGI,NCI-H522 lung,> 100 µM
same,TGI,OVCAR-5 ovarian,> 100 µM
same,TGI,KM12 colon,> 100 µM
same,TGI,NCI-H23 lung,> 97.3 µM
same,TGI,SR leukemia,> 66.9 µM
same,TGI,UACC-62 melanoma,> 100 µM
same,TGI,OVCAR-4 ovarian,> 100 µM
same,TGI,SNB-19 CNS,> 93.3 µM
same,TGI,T-47D breast,> 100 µM
same,TGI,HT29 colon,> 100 µM
same,TGI,OVCAR-3 ovarian,> 100 µM
same,TGI,PC-3 prostate,> 100 µM
same,TGI,MDA-MB-231 breast,> 100 µM
same,TGI,HS 578T breast,> 100 µM
same,TGI,786-0 renal,> 100 µM
same,TGI,EKVX NSCLC,> 100 µM
same,TGI,MOLT-4 leukemia,> 91.8 µM
same,TGI,UACC-257 melanoma,> 86 µM
same,TGI,RPMI-8226 leukemia,> 90.5 µM
same,TGI,NCI/ADR-RES ovarian,> 100 µM
same,TGI,MDA-N,> 100 µM
same,TGI,HCC-2998 colon,> 100 µM
same,TGI,HOP-92 NSCLC,> 100 µM
same,TGI,LOX IMVI melanoma,> 100 µM
same,TGI,NCI-H226 lung,> 100 µM
same,TGI,UO-31 renal,> 100 µM
same,TGI,RXF 393 renal,> 100 µM
N#C[C@H](c1nc2ccccc2s1)c1nc2ccccc2nc1Cl,TGI,A498 renal,> 100 µM
same,TGI,CCRF-CEM leukemia,> 100 µM
same,TGI,ACHN renal,29.8 µM
same,TGI,SNB-75 CNS,> 100 µM
same,TGI,CAKI-1 renal,> 100 µM
same,TGI,M14 melanoma,34.1 µM
same,TGI,MDA-MB-435,> 100 µM
same,TGI,HCT-15 colon,22.9 µM
same,TGI,A549 NSCLC,> 100 µM
same,TGI,BT-549 breast,21.4 µM
same,TGI,NCI-H460 lung,47.3 µM
same,TGI,SF-539 CNS,> 100 µM
same,TGI,SW-620 colon,> 100 µM
same,TGI,IGROV1 ovarian,> 100 µM
same,TGI,SK-MEL-28 melanoma,> 100 µM
same,TGI,SK-MEL-5 melanoma,> 100 µM
same,TGI,HOP-62 NSCLC,77.1 µM
same,TGI,SK-MEL-2 melanoma,> 100 µM
same,TGI,HCT-116 colon,> 100 µM
same,TGI,SK-OV-3 ovarian,73 µM
same,TGI,SN12C renal,> 100 µM
same,TGI,MCF7 breast,24.8 µM
same,TGI,HL-60(TB) leukemia,> 100 µM
same,TGI,OVCAR-8 ovarian,> 100 µM
same,TGI,U251 CNS,> 100 µM
same,TGI,COLO 205 colon,> 100 µM
same,TGI,SF-295 CNS,35.7 µM
same,TGI,NCI-H522 lung,> 100 µM
same,TGI,OVCAR-5 ovarian,39 µM
same,TGI,KM12 colon,> 100 µM
same,TGI,NCI-H23 lung,32.3 µM
same,TGI,SR leukemia,> 100 µM
same,TGI,UACC-62 melanoma,31.4 µM
same,TGI,OVCAR-4 ovarian,34.1 µM
same,TGI,SNB-19 CNS,> 100 µM
same,TGI,T-47D breast,> 100 µM
same,TGI,MALME-3M melanoma,> 100 µM
same,TGI,HT29 colon,> 100 µM
same,TGI,OVCAR-3 ovarian,38.9 µM
same,TGI,PC-3 prostate,> 100 µM
same,TGI,MDA-MB-231 breast,> 100 µM
same,TGI,HS 578T breast,> 100 µM
same,TGI,786-0 renal,> 100 µM
same,TGI,EKVX NSCLC,> 100 µM
same,TGI,MOLT-4 leukemia,> 100 µM
same,TGI,UACC-257 melanoma,43.3 µM
same,TGI,RPMI-8226 leukemia,> 100 µM
same,TGI,NCI/ADR-RES ovarian,> 100 µM
same,TGI,MDA-N,> 100 µM
same,TGI,HCC-2998 colon,7.09 µM
same,TGI,HOP-92 NSCLC,37.9 µM
same,TGI,NCI-H226 lung,> 100 µM
same,TGI,UO-31 renal,52 µM
same,TGI,RXF 393 renal,32 µM
